One experiment concerns Hep3B2.1-7. The experiment in a line: CCK-8 tumor cell proliferation, Hep3B2.1-7. In kind it is cell-based, Human. The following applies: Hep3B2.1-7, 96 h, read-out: IC50 for inhibiting the proliferation of tumor cells, Hep3B2.1-7. The method, then: (§1) Determination of half inhibitory concentration (IC50) of the compounds against tumor cells:
(§2) The tumor cells used herein were cultured in a cell culture medium listed in table 6 at 37° C. in an incubator with 5% CO2. Prior to experimentation, all cells used were correctly identified by STR profiling, and tested negative for mycoplasma through routine screenings.
(§3) IC50 values of the compounds of the present disclosure (including the compounds in Table 4 and compounds of examples 1-72) were measured using the Meilun Cell Counting Kit-S kit from Dalian Meilun Biotech Co., Ltd. Assay details are as follows: tumor cells were seeded in a 96-well plate at a density listed in Table 7. After 24 h, 100 μL of the inoculated cells were treated with 0.5 μL of the compounds of the present disclosure (including the compounds in Table 4 and compounds of examples 1-72) at 10 different successively decreasing concentrations (starting at the highest concentration of 10 μM; 5-fold serial dilutions). After the cells were treated with the compounds of the present disclosure for a period of time (the treatment times listed in Table 7), the cell viability detection reagent was added to the culture medium for cell viability assessment according to the instructions provided with the CCK-8 kit. […] The growth inhibition of the compounds of the present disclosure on cells was plotted by Prism Graphpad software, and the IC50 values of the compounds of the present disclosure were calculated therefrom.

A further experiment relates to LNcap. The experiment in a line: CCK-8 tumor cell proliferation, LNcap. The format is cell-based, Human. The note with it: 96 h, read-out: IC50 for inhibiting the proliferation of tumor cells, LNcap. How it is done:
as §1, §2, §3

The test system of a further experiment is MGC80-3. The experiment can be described thus: CCK-8 tumor cell proliferation, MGC80-3. In kind it is cell-based, Human. The note with it: read-out: IC50 for inhibiting the proliferation of tumor cells, MGC80-3. How it is done: as §1, §2, §3
In a further experiment the test system is DU-145. The experiment can be described thus: CCK-8 tumor cell proliferation, DU-145. In kind it is cell-based, Human. The following applies: DU-145, 96 h, read-out: IC50 for inhibiting the proliferation of tumor cells, DU-145. The method, then: as §1
(§4) The tumor cells used herein were cultured in a cell culture medium listed in table 6 at 37° C. in an incubator with 5% CO2.
(§5) After the cells were treated with the compounds of the present disclosure for a period of time (the treatment times listed in Table 7), the cell viability detection reagent was added to the culture medium for cell viability assessment according to the instructions provided with the CCK-8 kit. […] The growth inhibition of the compounds of the present disclosure on cells was plotted by Prism Graphpad software, and the IC50 values of the compounds of the present disclosure were calculated therefrom.

The next experiment concerns MM.1R. The experiment can be described thus: CCK-8 tumor cell proliferation, MM.1R. In kind it is cell-based. The following applies: 72 h, read-out: IC50 for inhibiting the proliferation of tumor cells, MM.1R. How it is done:
as §1, §4, §5

In another experiment the test system is WSU-DLCL2. The experiment in a line: CCK-8 tumor cell proliferation, WSU-DLCL2. The format is cell-based, Human. The note with it: read-out: IC50 for inhibiting the proliferation of tumor cells, WSU-DLCL2. How it is done:
as §1, §4, §5

Where [1] appears, read: Homo sapiens, MGC-803, MGC80-3, 96 h.
Setting [2] is: Homo sapiens, WSUDLCL2, WSU-DLCL2, 96 h.

pIC50: −log10 of the molar value. Where two headings read alike, the source gives them in different places.

For the molecule `CC1(C)[C@H](NC(=O)c2ccc(N3CCC(CN4C5CC4CN(c4cc6c(cc4F)C(=O)N(C4CCC(=O)NC4=O)C6=O)C5)CC3)nc2)C(C)(C)[C@H]1Oc1ccc(C#N)c(Cl)c1` (some centres unmarked) [GT-03404, N-((1r,3r)-3-(3-chloro-4-cyanophenoxy)-2,2,4,4-tetramethylcyclobutyl)-6-(4-((3-(2-(2,6-dioxopiperidin-3-yl)-6-fluoro-1,3-dioxoisoindolin-5-yl)-3,6-diazabicyclo[3.1.1]heptan-6-yl)methyl)piperidin-1-yl)nicotinamide], the values for the pIC50 in the experiment on Hep3B2.1-7 (Homo sapiens), in the experiment with LNcap (Homo sapiens) and in the experiment with MGC80-3 (setting [1]) were 6.30 to 7.00, 6.00 to 6.30 and 6.30 to 7.00, respectively.

As to `CC1(C)[C@H](NC(=O)c2ccc(N3CCC(CN4CC5CCC(C4)N5c4ccc5c(c4)C(=O)N(C4CCC(=O)NC4=O)C5=O)CC3)nc2)C(C)(C)[C@H]1Oc1ccc(C#N)c(Cl)c1` (some centres unmarked) [GT-03425, N-((1r,3r)-3-(3-chloro-4-cyanophenoxy)-2,2,4,4-tetramethylcyclobutyl)-6-(4-((8-(2-(2,6-dioxopiperidin-3-yl)-1,3-dioxoisoindolin-5-yl)-3,8-diazabicyclo[3.2.1]octan-3-yl)methyl)piperidin-1-yl)nicotinamide], the pIC50 with Hep3B2.1-7 (Homo sapiens) was at least 7.30; with DU-145 (Homo sapiens), 6.00 to 6.30; with MM.1R, 6.30 to 7.00; in the experiment with LNcap (Homo sapiens), 7.00 to 7.30; in the experiment on WSU-DLCL2 (setting [2]), 7.00 to 7.30; with MGC80-3 (setting [1]) it was at least 7.30.

As for `CC1(C)[C@H](NC(=O)c2ccc(N3CCC(CN4C5CCC4CN(c4ccc6c(c4)C(=O)N(C4CCC(=O)NC4=O)C6=O)C5)CC3)nc2)C(C)(C)[C@H]1Oc1ccc(C#N)c(Cl)c1` (some centres unmarked) [GT-03426, N-((1r,3r)-3-(3-chloro-4-cyanophenoxy)-2,2,4,4-tetramethylcyclobutyl)-6-(4-((3-(2-(2,6-dioxopiperidin-3-yl)-1,3-dioxoisoindolin-5-yl)-3,8-diazabicyclo[3.2.1]octan-8-yl)methyl)piperidin-1-yl)nicotinamide], the pIC50 is at least 7.30 in the experiment on Hep3B2.1-7 (Homo sapiens), 6.30 to 7.00 in the experiment on MM.1R, 7.00 to 7.30 in the experiment with LNcap (Homo sapiens) and 7.00 to 7.30 in the experiment on MGC80-3 (setting [1]).

`CC1(C)[C@H](NC(=O)c2ccc(N3CCC(CN4CC5CC(C4)N5c4ccc5c(c4)C(=O)N(C4CCC(=O)NC4=O)C5=O)CC3)nc2)C(C)(C)[C@H]1Oc1ccc(C#N)c(Cl)c1` (some centres unmarked) [GT-03427, N-((1r,3r)-3-(3-chloro-4-cyanophenoxy)-2,2,4,4-tetramethylcyclobutyl)-6-(4-((6-(2-(2,6-dioxopiperidin-3-yl)-1,3-dioxoisoindolin-5-yl)-3,6-diazabicyclo[3.1.1]heptan-3-yl)methyl)piperidin-1-yl)nicotinamide]: the pIC50 in the experiment on DU-145 (Homo sapiens) was 5.30 to 6.00; with LNcap (Homo sapiens), 6.00 to 6.30; in the experiment with WSU-DLCL2 (setting [2]), 6.30 to 7.00; in the experiment on MGC80-3 (setting [1]), 6.30 to 7.00.

Regarding `N#Cc1ccc(OC2CCC(NC(=O)c3ccc(N4CC5CCC(C4)N5CC4CCN(c5cc6c(cc5F)C(=O)N(C5CCC(=O)NC5=O)C6=O)CC4)nn3)CC2)cc1Cl` (centres unmarked) [GT-03450, N-((1r,4r)-4-(3-chloro-4-cyanophenoxy)cyclohexyl)-6-(8-((1-(2-(2,6-dioxopiperidin-3-yl)-6-fluoro-1,3-dioxoisoindolin-5-yl)piperidin-4-yl)methyl)-3,8-diazabicyclo[3.2.1]octan-3-yl)pyridazine-3-carboxamide], the pIC50 in the experiment on DU-145 was 5.30 to 6.00; in the experiment with MM.1R it was 6.30 to 7.00; in the experiment with LNcap it was 6.30 to 7.00; in the experiment with WSU-DLCL2 (WSU-DLCL2, 96 h), 6.00 to 6.30; in the experiment with MGC80-3 (MGC80-3, 96 h), 6.30 to 7.00.

Turning to `N#Cc1ccc(OC2CCC(NC(=O)c3ccc(N4C5CC4CN(CC4CCN(c6cc7c(cc6F)C(=O)N(C6CCC(=O)NC6=O)C7=O)CC4)C5)nn3)CC2)cc1Cl` (centres unmarked) [GT-03451, N-((1r,4r)-4-(3-chloro-4-cyanophenoxy)cyclohexyl)-6-(3-((1-(2-(2,6-dioxopiperidin-3-yl)-6-fluoro-1,3-dioxoisoindolin-5-yl)piperidin-4-yl)methyl)-3,6-diazabicyclo[3.1.1]heptan-6-yl)pyridazine-3-carboxamide], the pIC50 in the experiment with DU-145 is 5.30 to 6.00; with MM.1R it was 6.30 to 7.00; in the experiment with LNcap it was 6.30 to 7.00; in the experiment on WSU-DLCL2 (WSU-DLCL2, 96 h), 6.30 to 7.00; with MGC80-3 (MGC80-3, 96 h), 6.00 to 6.30.

`CC1(C)[C@H](NC(=O)c2ccc(N3CCC(CN4C5CC4CN(c4ccc6c(c4)C(=O)N(C4CCC(=O)NC4=O)C6=O)C5)CC3)nc2)C(C)(C)[C@H]1Oc1ccc(C#N)c(Cl)c1` (some centres unmarked) [GT-03471, N-((1r,3r)-3-(3-chloro-4-cyanophenoxy)-2,2,4,4-tetramethylcyclobutyl)-6-(4-((3-(2-(2,6-dioxopiperidin-3-yl)-1,3-dioxoisoindolin-5-yl)-3,6-diazabicyclo[3.1.1]heptan-6-yl)methyl)piperidin-1-yl)nicotinamide]: the pIC50 in the experiment on Hep3B2.1-7 (Homo sapiens) is 6.30 to 7.00; in the experiment with LNcap (Homo sapiens), 6.00 to 6.30; in the experiment on WSU-DLCL2 (setting [2]), 5.30 to 6.00; in the experiment on MGC80-3 (setting [1]) it was 6.30 to 7.00.

On to `CC1(C)[C@H](NC(=O)c2ccc(N3CCC(CN4C5CCC4CN(c4cc6c(cc4F)C(=O)N(C4CCC(=O)NC4=O)C6=O)C5)CC3)nc2)C(C)(C)[C@H]1Oc1ccc(C#N)c(Cl)c1` (some centres unmarked) [GT-03482, N-((1r,3r)-3-(3-chloro-4-cyanophenoxy)-2,2,4,4-tetramethylcyclobutyl)-6-(4-((3-(2-(2,6-dioxopiperidin-3-yl)-6-fluoro-1,3-dioxoisoindolin-5-yl)-3,8-diazabicyclo[3.2.1]octan-8-yl)methyl)piperidin-1-yl)nicotinamide], for which the pIC50 in the experiment with Hep3B2.1-7 (Homo sapiens) was 6.30 to 7.00; in the experiment on DU-145 (Homo sapiens) it was 6.30 to 7.00; in the experiment on MM.1R it was 6.30 to 7.00; in the experiment on LNcap (Homo sapiens), 7.00 to 7.30; in the experiment with WSU-DLCL2 (setting [2]), 6.30 to 7.00; in the experiment on MGC80-3 (setting [1]), 7.00 to 7.30.

`N#Cc1ccc(OC2CCC(NC(=O)c3ccc(N4CCC(CN5C6CC5CN(c5cc7c(cc5F)C(=O)N(C5CCC(=O)NC5=O)C7=O)C6)CC4)nn3)CC2)cc1Cl` (centres unmarked) [GT-03487, N-((1r,4r)-4-(3-chloro-4-cyanophenoxy)cyclohexyl)-6-(4-((3-(2-(2,6-dioxopiperidin-3-yl)-6-fluoro-1,3-dioxoisoindolin-5-yl)-3,6-diazabicyclo[3.1.1]heptan-6-yl)methyl)piperidin-1-yl)pyridazine-3-carboxamide]: the pIC50 in the experiment on DU-145 is 5.30 to 6.00; with MM.1R, 6.30 to 7.00; in the experiment with LNcap it was 6.30 to 7.00; in the experiment with WSU-DLCL2 (WSU-DLCL2, 96 h) it was 6.30 to 7.00; in the experiment with MGC80-3 (MGC80-3, 96 h), 6.30 to 7.00.

As to `N#Cc1ccc(OC2CCC(NC(=O)c3ccc(N4CCC(CN5C6CCC5CN(c5ccc7c(c5)C(=O)N(C5CCC(=O)NC5=O)C7=O)C6)CC4)nn3)CC2)cc1Cl` (centres unmarked) [GT-03489, N-((1r,4r)-4-(3-chloro-4-cyanophenoxy)cyclohexyl)-6-(4-((3-(2-(2,6-dioxopiperidin-3-yl)-1,3-dioxoisoindolin-5-yl)-3,8-diazabicyclo[3.2.1]octan-8-yl)methyl)piperidin-1-yl)pyridazine-3-carboxamide], the pIC50 with Hep3B2.1-7 was 6.30 to 7.00; in the experiment on DU-145, 5.30 to 6.00; in the experiment with MM.1R it was 6.00 to 6.30; in the experiment with LNcap, 6.30 to 7.00; with WSU-DLCL2 (WSU-DLCL2, 96 h), 6.30 to 7.00; in the experiment with MGC80-3 (MGC80-3, 96 h) it was 6.30 to 7.00.

Turning to `N#Cc1ccc(OC2CCC(NC(=O)c3ccc(N4CCC(CN5C6CC5CN(c5ccc7c(c5)C(=O)N(C5CCC(=O)NC5=O)C7=O)C6)CC4)nn3)CC2)cc1Cl` (centres unmarked) [GT-03490, N-((1r,4r)-4-(3-chloro-4-cyanophenoxy)cyclohexyl)-6-(4-((3-(2-(2,6-dioxopiperidin-3-yl)-1,3-dioxoisoindolin-5-yl)-3,6-diazabicyclo[3.1.1]heptan-6-yl)methyl)piperidin-1-yl)pyridazine-3-carboxamide], the pIC50 in the experiment on DU-145 was 5.30 to 6.00; in the experiment with MM.1R it was 6.30 to 7.00; in the experiment with LNcap, 6.30 to 7.00; in the experiment with WSU-DLCL2 (WSU-DLCL2, 96 h) it was 6.30 to 7.00; with MGC80-3 (MGC80-3, 96 h), 6.30 to 7.00.
